Reference: article PMC11643962, “Exploring 4,7-Disubstituted Pyrimido[4,5-d]pyrimidines as Antiviral and Anticancer Agents” (Molecules, 2024)
Read-outs that look alike come from different tables or passages of the source.

Assays:
[1] = in vitro; conditions: dog
[2] = test system: respiratory syncytial virus A (RSV A Long); assay: Antiviral CPE reduction assay, RSV A Long in Hep2 cells; format: cell-based
[3] = test system: HCoV-229E; assay: Antiviral CPE reduction assay, HCoV-229E in HEL299 cells; format: cell-based, human coronavirus 229E; conditions: mean ± SD of two or three independent experiments
[4] = test system: K-562 (chronic myeloid leukemia); assay: MTS proliferation assay, K-562; conditions: read-out: Anti-Proliferative Activity (IC50) K-562
[5] = test system: LN-229 (glioblastoma); assay: MTS proliferation assay, LN-229; conditions: read-out: Anti-Proliferative Activity (IC50) LN-229
[6] = test system: Capan-1 (pancreatic adenocarcinoma); assay: MTS proliferation assay, Capan-1; conditions: read-out: Anti-Proliferative Activity (IC50) Capan-1
[7] = test system: Z-138 (non-Hodgkin lymphoma); assay: MTS proliferation assay, Z-138; conditions: read-out: Anti-Proliferative Activity (IC50) Z-138
[8] = test system: HCoV-OC43; assay: Antiviral CPE reduction assay, HCoV-OC43 in HEL299 cells; format: cell-based, human coronavirus OC43; conditions: mean ± SD of two or three independent experiments
[9] = test system: eight diverse human cancer cell lines; assay: MTS proliferation assay, panel of eight human cancer cell lines (statements for the whole panel); conditions: 72 h
[10] = in vitro; conditions: African green monkey
[11] = test system: herpes simplex virus-1 (HSV-1 KOS); assay: Antiviral CPE reduction assay, HSV-1 KOS in HEL299 cells; format: cell-based; conditions: mean ± SD, no unit printed on the supplement page (Table 2 of the same screen is in µM)
[12] = test system: NCI-H460 (lung carcinoma); assay: MTS proliferation assay, NCI-H460; conditions: read-out: Anti-Proliferative Activity (IC50) NCI-H460
[13] = test system: influenza A/H1N1 (A/Ned/378/05); assay: Antiviral CPE reduction assay, influenza A/H1N1 in MDCK cells; format: cell-based, influenza A virus; conditions: read-out: Antiviral Activity (EC50) Influenza H1N1
[14] = test system: DND-41 (acute lymphoblastic leukemia); assay: MTS proliferation assay, DND-41; conditions: read-out: Anti-Proliferative Activity (IC50) DND-41
[15] = test system: HCT-116 (colorectal carcinoma); assay: MTS proliferation assay, HCT-116; conditions: read-out: Anti-Proliferative Activity (IC50) HCT-116
[16] = in vitro; conditions: human
[17] = in vitro; conditions: human; remark: listed apart in the source
[18] = in vitro; conditions: human; remark: listed apart in the source
[19] = test system: yellow fever virus (YFV 17D); assay: microbe, parasite or virus in culture; format: cell-based
[20] = test system: influenza B (B/Ned/537/05); assay: Antiviral CPE reduction assay, influenza B in MDCK cells; format: cell-based, influenza B virus; conditions: read-out: Antiviral Activity (EC50) Influenza B
[21] = test system: Zika virus (ZikV mr766); assay: Antiviral CPE reduction assay, Zika virus mr766 in VeroE6 cells; format: cell-based; conditions: mean ± SD, no unit printed on the supplement page (Table 2 of the same screen is in µM)
[22] = test system: influenza A/H3N2 (A/HK/7/87); assay: Antiviral CPE reduction assay, influenza A/H3N2 in MDCK cells; format: cell-based, influenza A virus; conditions: read-out: Antiviral Activity (EC50) Influenza H3N2
[23] = test system: HL-60 (acute myeloid leukemia); assay: MTS proliferation assay, HL-60; conditions: read-out: Anti-Proliferative Activity (IC50) HL-60
[24] = test system: HCoV-NL63; assay: Antiviral CPE reduction assay, HCoV-NL63 in Hep3B cells; format: cell-based, human coronavirus NL63; conditions: mean ± SD of two or three independent experiments
[25] = test system: MDCK cells
[26] = test system: VeroE6 cells
[27] = test system: Hep2 cells
[28] = test system: HEL299 cells
[29] = test system: Hep3B cells
[30] = test system: eight diverse human cancer cell lines
[31] = test system: variety of viruses (HSV-1, influenza viruses, yellow fever virus, Zika virus, RSV, HCoV-229E, HCoV-OC43, HCoV-NL63); format: cell-based; conditions: CPE reduction assays, virus panel
[32] = human respiratory syncytial virus, HEp-2, Hep2 cells, CPE reduction, MTS, mean ± SD of two or three independent experiments, read-out: Antiviral Activity (EC50) RSV A Long
[33] = Human coronavirus 229E, HEL 299, MTS
[34] = Betacoronavirus 1, OC43, HEL 299, MTS
[35] = read-out: CC50 values (cytotoxic activity) in the cancer cell line panel
[36] = Human alphaherpesvirus 1, HEL 299, MTS
[37] = Influenza A virus, H1N1, MDCK cells, CPE reduction, MTS, mean ± SD of two or three independent experiments
[38] = Yellow fever virus, Vero C1008, read-out: Antiviral activity (EC50) YFV 17D
[39] = Influenza A virus, H3N2, MDCK cells, CPE reduction, MTS, mean ± SD of two or three independent experiments
[40] = 72 h, MTS, mean ± SD of two independent experiments
[41] = MDCK cells, CPE reduction, MTS, mean ± SD of two or three independent experiments

`C=CC(=O)Nc1cccc(Oc2nc(Nc3ccc(N4CCN(C)CC4)cc3OC)ncc2Cl)c1` [WZ4002, reference compound] gave a CC50 [1] of over 100 µM, an EC50 [2, 32] of over 100 µM and an EC50 [3, 33] of 41.8 ± 9.8 µM. It also gave an IC50 ([4]; Homo sapiens, K562, 72 h) of over 100 µM, an IC50 ([5]; Homo sapiens, LN-229, 72 h) of over 100 µM and an IC50 ([6]; Homo sapiens, CAPAN-1, 72 h) of over 100 µM. It also gave an IC50 ([7]; Homo sapiens, Z-138, 72 h) of over 100 µM, an EC50 [8, 34] of over 100 µM and a CC50 [9, 35] of over 100 µM. The CC50 [10] was over 100 µM, the EC50 [11, 36] was over 100 µM and the IC50 ([12]; Homo sapiens, NCI-H460, 72 h) was over 100 µM. For the same compound, the EC50 [13, 37] was over 100 µM, the IC50 ([14]; Homo sapiens, DND41, 72 h) was over 100 µM and the IC50 ([15]; Homo sapiens, HCT-116, 72 h) was over 100 µM. The CC50 [16] was over 100 µM, the CC50 [17] was over 100 µM and the CC50 [18] was over 100 µM. For the same compound, the EC50 [19, 38] was over 100 µM, the EC50 ([20]; Influenza B virus, MDCK) was over 100 µM and the EC50 ([21]; Zika virus, Vero C1008, MTS) was over 100 µM. The EC50 [22, 39] was over 100 µM, the IC50 ([23]; Homo sapiens, HL-60, 72 h) was over 100 µM and the EC50 ([24]; Human coronavirus NL63, MTS) was over 100 µM.
`C#Cc1cccc(Nc2ncnc3cc4c(cc23)OCCOCCOCCO4)c1` [Icotinib, icotinib, reference compound] gave a CC50 [1] of over 100 µM, an EC50 [2, 32] of over 100 µM and an EC50 [3, 33] of over 100 µM. It also gave an IC50 ([4]; Homo sapiens, K562, 72 h) of over 100 µM, an IC50 ([5]; Homo sapiens, LN-229, 72 h) of over 100 µM and an IC50 ([6]; Homo sapiens, CAPAN-1, 72 h) of over 100 µM. It also gave an IC50 ([7]; Homo sapiens, Z-138, 72 h) of over 100 µM, an EC50 [8, 34] of over 100 µM and a CC50 [9, 35] of over 100 µM. For the same compound, the CC50 [10] was over 100 µM, the EC50 [11, 36] was over 100 µM and the IC50 ([12]; Homo sapiens, NCI-H460, 72 h) was over 100 µM. It also gave an EC50 [13, 37] of over 100 µM, an IC50 ([14]; Homo sapiens, DND41, 72 h) of over 100 µM and an IC50 ([15]; Homo sapiens, HCT-116, 72 h) of over 100 µM. The CC50 [16] was over 100 µM, the CC50 [17] was over 100 µM and the CC50 [18] was over 100 µM. The EC50 [19, 38] was over 100 µM, the EC50 ([20]; Influenza B virus, MDCK cells, CPE reduction, MTS, mean ± SD of two or three independent experiments) was over 100 µM and the EC50 ([21]; Zika virus, Vero C1008, MTS) was over 100 µM. For the same compound, the EC50 [22, 39] was over 100 µM, the IC50 ([23]; Homo sapiens, HL-60, 72 h) was over 100 µM and the EC50 ([24]; Human coronavirus NL63, MTS) was over 100 µM.
Work on `CC#CC(=O)Nc1ccc2ncnc(Nc3cccc(Br)c3)c2c1` [CL-387785, reference compound] yielded a CC50 [1] of 7.1 ± 0.4 µM, an EC50 ([2]; human respiratory syncytial virus, HEp-2, read-out: Antiviral Activity (EC50) RSV A Long) of over 100 µM and an EC50 [3, 33] of 0.4 ± 0.2 µM. It also gave an IC50 ([4]; Homo sapiens, K562, 72 h) of 65 ± 0.2 µM, an IC50 ([5]; Homo sapiens, LN-229, 72 h) of 43.8 ± 6.7 µM and an IC50 ([6]; Homo sapiens, CAPAN-1, 72 h) of 0.1 ± 0.01 µM. The IC50 ([7]; Homo sapiens, Z-138, 72 h) was 0.2 ± 0.1 µM, the EC50 [8, 34] was 1.8 ± 0.4 µM and the CC50 ([9]; read-out: CC50 values (anti-proliferative activity) against the majority of the tested cell lines) was under 10 µM. The CC50 [10] was over 100 µM, the EC50 [11, 36] was 1 µM and the IC50 ([12]; Homo sapiens, NCI-H460, 72 h) was 2.8 ± 0.6 µM. It also gave an EC50 ([13]; Influenza A virus, H1N1, MDCK) of over 100 µM, an IC50 ([14]; Homo sapiens, DND41, 72 h) of 0.9 ± 0.2 µM and an IC50 ([15]; Homo sapiens, HCT-116, 72 h) of 1.3 ± 1.1 µM. For the same compound, the EC50 [19, 38] was over 100 µM, the EC50 ([20]; Influenza B virus, MDCK) was 4.5 ± 1.2 µM and the EC50 ([21]; Zika virus, Vero C1008, MTS) was over 100 µM. For the same compound, the EC50 ([22]; Influenza A virus, H3N2, MDCK) was over 100 µM, the IC50 ([23]; Homo sapiens, HL-60, 72 h) was 1.9 ± 0.04 µM and the EC50 ([24]; Human coronavirus NL63, MTS) was over 100 µM.
`C=CC(=O)Nc1cccc(Nc2nc(Nc3ccc(NC4CN(CCF)C4)cc3OC)ncc2C(F)(F)F)c1` [CNX-2006, reference compound] showed an EC50 ([2]; Hep2 cells, CPE reduction, MTS, mean ± SD of two or three independent experiments, read-out: Antiviral Activity (EC50) RSV A Long) of over 100 µM, an EC50 ([3]; MTS) of 1.8 ± 0.2 µM and an IC50 [4, 40] of 11.5 ± 0.06 µM. It also gave an IC50 [5, 40] of 8.2 ± 1.2 µM, an IC50 [6, 40] of 1.7 ± 0.01 µM and an IC50 [7, 40] of 2.6 ± 0.5 µM. The EC50 ([8]; MTS) was 2.2 ± 0.8 µM, the CC50 [25] was 1.7 ± 0.4 µM and the CC50 [26] was 9.2 ± 1.1 µM. For the same compound, the CC50 [27] was 11.7 ± 0.8 µM, the EC50 ([11]; MTS) was over 100 µM and the IC50 [12, 40] was 8.7 ± 1.9 µM. For the same compound, the EC50 [13, 41] was over 100 µM, the IC50 [14, 40] was 4.5 ± 0.2 µM and the IC50 [15, 40] was 6.6 ± 0.7 µM. It also gave an EC50 ([19]; VeroE6 cells, CPE reduction, MTS, mean ± SD, no unit printed on the supplement page (Table 2 of the same screen is in µM), read-out: Antiviral activity (EC50) YFV 17D) of over 100 µM, a CC50 [28] of 11.1 ± 1 µM and an EC50 [20, 41] of over 100 µM. The EC50 ([21]; MTS) was over 100 µM, the EC50 [22, 41] was over 100 µM and the IC50 [23, 40] was 3.8 ± 1.4 µM. The CC50 [29] was 4.3 ± 1.8 µM, the EC50 ([24]; MTS) was over 100 µM and the CC50 [30] was under 10 µM.
`CN1CCN(c2ncc3c(Nc4cccnc4)ncnc3n2)CC1` [Compound 7k, 7-(4-methylpiperazin-1-yl)-N-(pyridin-3-yl)pyrimido[4,5-d]pyrimidin-4-amine] showed a CC50 [1] of over 50 µM, an EC50 [2, 32] of over 50 µM and an EC50 [3, 33] of over 50 µM. The melting point was over 300 °C, the IC50 ([4]; Homo sapiens, K562, 72 h) was over 100 µM and the IC50 ([5]; Homo sapiens, LN-229, 72 h) was over 100 µM. The IC50 ([6]; Homo sapiens, CAPAN-1, 72 h) was over 100 µM, the IC50 ([7]; Homo sapiens, Z-138, 72 h) was over 100 µM and the EC50 [8, 34] was over 50 µM. The CC50 [10] was over 50 µM, the “antiviral activity (in words)” value [31] was “inactive” and the EC50 [11, 36] was over 50 µM. For the same compound, the IC50 ([12]; Homo sapiens, NCI-H460, 72 h) was over 100 µM, the EC50 [13, 37] was over 50 µM and the IC50 ([14]; Homo sapiens, DND41, 72 h) was over 100 µM. For the same compound, the IC50 ([15]; Homo sapiens, HCT-116, 72 h) was over 100 µM, the CC50 [16] was over 50 µM and the CC50 [17] was over 50 µM. For the same compound, the CC50 [18] was over 50 µM, the EC50 [19, 38] was over 50 µM and the EC50 ([20]; Influenza B virus, MDCK) was over 50 µM. The EC50 ([21]; Zika virus, Vero C1008, MTS) was over 50 µM, the EC50 [22, 39] was over 50 µM and the IC50 ([23]; Homo sapiens, HL-60, 72 h) was over 100 µM. The EC50 ([24]; Human coronavirus NL63, MTS) was over 50 µM.
